Laboratory results taken from patent publication US20240116921A1, “LACTAM (HETERO)[…] DERIVATIVES AS INHIBITORS OF ERBB2” (EnLiven Therapeutics, Inc., priority 2020, published 2024).
pIC50: −log10 of the molar value.

Tests used:
[1] = molecular target: T1, phosphorylated ERBB2 (pERBB2) (Homo sapiens, UniProt P04626); experiment: Detection of phosphorylated ERBB2 (pERBB2) by ELISA in BT-474 cells; type: cell-based; conditions: four hours incubation
T1 construct: endogenous in cells; host or cells: BT-474
T1 sequence (P04626 23-1255): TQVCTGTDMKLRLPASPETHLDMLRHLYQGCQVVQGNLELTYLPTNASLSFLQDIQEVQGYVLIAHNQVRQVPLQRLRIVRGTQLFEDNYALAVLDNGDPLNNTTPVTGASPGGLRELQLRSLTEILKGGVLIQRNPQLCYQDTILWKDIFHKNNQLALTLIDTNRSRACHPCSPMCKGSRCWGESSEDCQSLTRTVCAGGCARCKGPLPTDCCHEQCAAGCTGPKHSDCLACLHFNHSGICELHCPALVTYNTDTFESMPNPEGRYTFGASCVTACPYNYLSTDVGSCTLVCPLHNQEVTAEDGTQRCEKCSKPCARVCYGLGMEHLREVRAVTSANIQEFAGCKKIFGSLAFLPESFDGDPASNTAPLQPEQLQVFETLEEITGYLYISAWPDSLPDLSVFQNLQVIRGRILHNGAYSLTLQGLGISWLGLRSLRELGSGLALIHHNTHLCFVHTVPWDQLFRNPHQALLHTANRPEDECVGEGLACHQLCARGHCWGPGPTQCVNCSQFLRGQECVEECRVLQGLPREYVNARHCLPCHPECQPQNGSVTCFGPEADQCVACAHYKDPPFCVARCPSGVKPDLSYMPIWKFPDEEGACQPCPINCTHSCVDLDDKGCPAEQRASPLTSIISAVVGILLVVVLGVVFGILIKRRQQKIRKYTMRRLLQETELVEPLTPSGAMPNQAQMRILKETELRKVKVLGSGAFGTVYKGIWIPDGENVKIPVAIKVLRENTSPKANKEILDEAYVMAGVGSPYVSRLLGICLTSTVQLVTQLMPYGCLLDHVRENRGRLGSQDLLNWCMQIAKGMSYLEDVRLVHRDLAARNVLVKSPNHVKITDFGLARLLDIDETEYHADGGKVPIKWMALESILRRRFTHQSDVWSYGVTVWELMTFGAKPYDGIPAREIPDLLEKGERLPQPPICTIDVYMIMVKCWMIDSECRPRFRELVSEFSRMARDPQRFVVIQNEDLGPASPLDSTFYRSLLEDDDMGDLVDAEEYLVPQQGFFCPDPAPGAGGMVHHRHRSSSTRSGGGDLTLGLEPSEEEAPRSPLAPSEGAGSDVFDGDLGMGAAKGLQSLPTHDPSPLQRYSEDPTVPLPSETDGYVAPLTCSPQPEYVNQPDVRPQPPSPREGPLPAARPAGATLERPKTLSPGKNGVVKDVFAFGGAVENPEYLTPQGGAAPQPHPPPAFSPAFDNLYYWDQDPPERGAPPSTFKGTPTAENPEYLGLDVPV
Description: BT-474 cells were seeded into a 96-well at 2.0*10^4 cells/100 μl/well.
Compounds were dissolved and serially diluted in DMSO. The compounds were then were added, mixed, and incubated for four hours at 37° C., 5% CO2. Compounds were added using four-fold dilutions at final concentrations ranging from 10 μM to 0.01 nM.
Following the four hour incubation with compounds, cell lysates were prepared.
Plates were centrifuged for 5 min at 3000 RPM, and supernatant was removed from each well. Cells were washed 3 times by resuspension in 150 μl PBS, followed by centrifugation and removal of the supernatant, as above. […] Cells were incubated with lysis buffer for 1 hour at 4° C., and then stored at −80° C.
Enzyme-linked immunosorbent assays (ELISA) were performed to measure phosphorylated ERBB2 levels. […] The next day, plates were washed with PBS+0.05% Tween20 (PBST). 150 μl of 5% BSA blocking solution was added for 1 hour at room temperature, with shaking. Plates were washed with PBST. Cell lysates were thawed and 100 μl of lysate was added to the ELISA plate. The plates were incubated for 2 hours at room temperature, with shaking. […] Plates were incubated for 1 hour at room temperature, with shaking. Plates were then washed with PBST, and 100 μl TMB substrate solution (R&D Systems, cat #DY999) was added. Plate were incubated in the dark for 20 minutes at room temperature. 50 μl of Stop solution (R&D Systems, cat #DY994) (50 μl) was added to each well and mixed.
Optical density at 450 nm was read on an EnSpire plate reader (Perkin Elmer). The remaining kinase activity by calculated using the following formula: % Relative activity=100×(A450sample−A450LC)/(A450HC−A450LC). The low and high control values (“LC” and “HC”) were generated from lysate from wells without cells or with cells treated with 0.1% DMSO, respectively.

[2] = molecular target: T2, phosphorylated EGFR (pEGFR) (Homo sapiens, UniProt P00533); experiment: Detection of phosphorylated EGFR (pEGFR) in EGF-stimulated A431 cells; type: cell-based; conditions: A431 cells (10% FBS), 4 hours incubation, EGF 30 ng/mL 10 minutes, AlphaLISA
T2 construct: performed to measure phosphorylated EGFR levels using A431 cells (10% FBS); endogenous in cells; host or cells: A431
T2 sequence (P00533 25-1210): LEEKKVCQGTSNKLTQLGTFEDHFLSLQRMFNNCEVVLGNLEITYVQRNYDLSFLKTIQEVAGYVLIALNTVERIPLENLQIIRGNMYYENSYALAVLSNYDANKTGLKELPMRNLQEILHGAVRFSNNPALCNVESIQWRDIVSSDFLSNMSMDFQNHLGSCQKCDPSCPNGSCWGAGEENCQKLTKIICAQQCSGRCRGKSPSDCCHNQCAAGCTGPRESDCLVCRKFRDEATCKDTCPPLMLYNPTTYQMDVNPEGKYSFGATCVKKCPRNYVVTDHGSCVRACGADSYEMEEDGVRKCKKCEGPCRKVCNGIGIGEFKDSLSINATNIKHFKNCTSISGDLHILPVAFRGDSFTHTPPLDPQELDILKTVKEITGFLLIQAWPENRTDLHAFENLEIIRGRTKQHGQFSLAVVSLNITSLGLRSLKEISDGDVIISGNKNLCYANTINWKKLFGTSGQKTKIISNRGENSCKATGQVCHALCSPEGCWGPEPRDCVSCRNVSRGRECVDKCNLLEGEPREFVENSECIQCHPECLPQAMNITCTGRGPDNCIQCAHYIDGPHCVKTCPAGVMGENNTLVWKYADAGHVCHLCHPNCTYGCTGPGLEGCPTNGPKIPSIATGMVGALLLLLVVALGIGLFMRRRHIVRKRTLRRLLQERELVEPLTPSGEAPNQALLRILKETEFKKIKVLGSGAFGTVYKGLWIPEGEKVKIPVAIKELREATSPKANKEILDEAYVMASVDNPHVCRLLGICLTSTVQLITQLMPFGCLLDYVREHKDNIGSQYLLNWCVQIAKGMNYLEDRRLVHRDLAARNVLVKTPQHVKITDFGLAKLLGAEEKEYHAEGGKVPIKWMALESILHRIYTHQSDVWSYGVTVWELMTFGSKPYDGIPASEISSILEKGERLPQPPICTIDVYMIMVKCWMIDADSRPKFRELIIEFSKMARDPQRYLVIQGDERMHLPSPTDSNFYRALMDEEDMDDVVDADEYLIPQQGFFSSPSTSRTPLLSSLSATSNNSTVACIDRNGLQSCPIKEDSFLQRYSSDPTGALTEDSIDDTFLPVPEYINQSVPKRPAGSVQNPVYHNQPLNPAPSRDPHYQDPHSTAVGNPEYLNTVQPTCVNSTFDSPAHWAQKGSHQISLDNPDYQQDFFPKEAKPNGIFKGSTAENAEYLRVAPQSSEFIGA
Description: Enzyme-linked immunosorbent assays (ELISA) were performed to measure phosphorylated EGFR levels using A431 cells (10% FBS). A431 (1.0*10^4 cells/40 μl/well) cells were seeded in 384 well. Compounds were dissolved in DMSO, serially diluted in DMSO and then were added, mixed, and incubated for 4 hours at 37° C., 5% CO2. Following the 4-hours incubation, cells were stimulated for 10 minutes with EGF (Invitrogen, cat #PHG0311) at a final concentration of 30 ng/mL in the incubator. The media was aspirated and cells were lysed in 10 μL lysis buffer with protease and phosphatase inhibitors (PerkinElmer, cat #ALSU-PEGFR-A50K). The plates were placed on a shaker for 5 minutes and then incubated for 30 min at 4° C. for complete lysis. The lysate was transferred to an Optiplate (Perkin Elmer, cat #6007290).
Acceptor mix (PerkinElmer, cat #ALSU-PEGFR-A50K) was prepared just before use and 5 μL was dispensed to all the wells, followed by a 1.5-2 h incubation at room temperature in dark. The donor mix (PerkinElmer, cat #ALSU-PEGFR-A50K) was prepared under low light conditions prior to use and […] of donor mix was added to all the wells under subdued lighting or green filters. The plates were placed on a shaker for 5 min, sealed, and incubated overnight at room temperature in dark. Plates were read on the Envision (PerkinElmer) using standard AlphaLISA settings.
The percentage of inhibition on EGFR phosphorylation was calculated following equation: % Inhibition=100×(LumHC−LumSample)/(LumHC−LumLC). The low and high controls (LC/HC) are generated from lysate from wells with cells treated with DMSO or […] Staurosporine (BioAustralis, cat #BIA-S1086), […]. IC50 values were calculated by fitting the Curve using XLfit (v5.3.1.3), equation 201: Y=Bottom+(Top−Bottom)/(1+10^((Log IC50−X)*HillSlope)).

[3] = molecular target: Ba/F3 ERBB2 A775_G776insYVMA (Homo sapiens, UniProt P04626, DUP772-775, cells depend on it); experiment: Cell viability assay, Ba/F3 ERBB2 A775_G776insYVMA; type: cell-based, mouse; conditions: Ba/F3 ERBB2 YVMA cells, cell viability, 72 hours, CellTiter Glo; Table B5; read-out: Ba/F3 ERBB2 YVMA, IC50
Ba/F3 ERBB2 A775_G776insYVMA, sequence (P04626 with tags, fused parts or gaps DUP772-775): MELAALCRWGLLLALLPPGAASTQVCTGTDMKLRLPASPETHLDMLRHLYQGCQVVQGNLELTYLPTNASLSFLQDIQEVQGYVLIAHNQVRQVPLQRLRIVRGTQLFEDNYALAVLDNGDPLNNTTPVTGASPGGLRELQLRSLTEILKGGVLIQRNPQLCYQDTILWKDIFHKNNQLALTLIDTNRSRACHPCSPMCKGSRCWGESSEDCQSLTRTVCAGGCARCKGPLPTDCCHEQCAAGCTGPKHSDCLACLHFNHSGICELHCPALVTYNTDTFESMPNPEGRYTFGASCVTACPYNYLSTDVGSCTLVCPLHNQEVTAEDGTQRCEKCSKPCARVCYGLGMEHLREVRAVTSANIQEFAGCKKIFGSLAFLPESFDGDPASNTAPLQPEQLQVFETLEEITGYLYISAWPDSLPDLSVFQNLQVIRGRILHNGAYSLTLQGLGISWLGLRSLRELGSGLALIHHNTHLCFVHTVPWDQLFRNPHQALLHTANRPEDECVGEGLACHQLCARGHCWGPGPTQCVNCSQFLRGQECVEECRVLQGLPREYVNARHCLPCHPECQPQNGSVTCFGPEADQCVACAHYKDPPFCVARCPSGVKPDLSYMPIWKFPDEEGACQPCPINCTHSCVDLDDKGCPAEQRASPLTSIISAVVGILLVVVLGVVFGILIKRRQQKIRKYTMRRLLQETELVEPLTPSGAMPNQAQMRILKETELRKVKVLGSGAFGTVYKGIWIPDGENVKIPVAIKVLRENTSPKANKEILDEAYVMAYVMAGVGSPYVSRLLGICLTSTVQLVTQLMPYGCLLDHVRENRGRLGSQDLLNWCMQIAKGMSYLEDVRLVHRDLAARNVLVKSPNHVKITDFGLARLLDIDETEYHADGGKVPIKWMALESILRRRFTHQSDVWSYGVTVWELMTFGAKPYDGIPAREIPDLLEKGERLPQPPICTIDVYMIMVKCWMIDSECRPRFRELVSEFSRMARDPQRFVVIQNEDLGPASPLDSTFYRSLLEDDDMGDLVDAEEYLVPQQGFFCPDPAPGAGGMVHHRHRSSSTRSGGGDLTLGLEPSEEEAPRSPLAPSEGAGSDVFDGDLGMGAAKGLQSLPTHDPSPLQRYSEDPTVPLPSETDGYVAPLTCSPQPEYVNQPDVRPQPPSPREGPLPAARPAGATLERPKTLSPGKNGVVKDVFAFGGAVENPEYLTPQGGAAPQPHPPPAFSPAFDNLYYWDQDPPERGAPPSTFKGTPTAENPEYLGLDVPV
Description: Cells were treated with compounds, and cell viability was measured as a metric of kinase inhibition.
The Ba/F3 cell line is IL-3-dependent mouse cell line derived from the C3H mouse strain. Ba/F3 cell lines were engineered to express human ERBB2 or EGFR kinases, rendering the cells IL-3 independent. The lines were generated via retroviral transduction utilizing a Moloney murine leukemia virus (MMLV) promoter, and constructs are stably integrated into the cell genome. The sequences of the ERBB2 and EGFR genes used were NCBI Reference Sequences NM_004448.3 and NM_005228.3, respectively.
Similarly, Ba/F3 cell lines engineered to express EGFR, ERBB2, or ERBB2 mutants were grown, harvested, counted and seeded at 3000 cells per well in 96-well plates. A subset of wells contained media only (low control, “LC”).
Table B1 provides the growth media and number of cells seeded per well for the each cell line.
Plates were placed in a 37° C., 5% CO2 incubator for 72 hours. Plates were then removed from the incubator and equilibrated for 15 minutes at room temperature. 40 μl of CellTiter Glo reagent (Promega) was added to measure the relative level of metabolically active cells by quantifying intracellular ATP concentrations. Plates were incubated for 30 minutes at room temperature, and luminescence was measured. […] Graphical curves were fitted using a nonlinear regression model with a sigmoidal dose response.

Structure (SMILES) | pIC50 [1] | pIC50 [2] | GI50 [3] [nM]
C=C1C(=O)N(c2ccc3ncnc(Nc4ccc(Oc5ccn6ncnc6c5)c(C)c4)c3c2)C2CC12 (single isomer, unassigned) [Example S21, Enantiomer # 1, 2-{4-[(3-methyl-4-{[1,2,4]triazolo[1,5-a]pyridin-7-yloxy}phenyl)amino]quinazolin-6-yl}-4-methylidene-2-azabicyclo[3.1.0]hexan-3-one] | 7.68 | 6.27 | –
C=C1C(=O)N(c2ccc3ncnc(Nc4ccc(Oc5ccn6ncnc6c5)c(C)c4)c3c2)C2CC12 (single isomer, unassigned) [Example S21, Enantiomer # 2, 2-{4-[(3-methyl-4-{[1,2,4]triazolo[1,5-a]pyridin-7-yloxy}phenyl)amino]quinazolin-6-yl}-4-methylidene-2-azabicyclo[3.1.0]hexan-3-one] | 7.65 | 5.70 | –
C=C1C(=O)N(c2ccc3ncnc(Nc4ccc(Oc5ccc6c(c5)ncn6C)c(C)c4)c3c2)C2CC12 (single isomer, unassigned) [Example S33, Enantiomer # 1, 2-[4-({3-methyl-4-[(1-methyl-1,3-benzodiazol-5-yl)oxy]phenyl}amino)quinazolin-6-yl]-4-methylidene-2-azabicyclo[3.1.0]hexan-3-one] | 7.63 | 5.96 | 7.57
C=C1C(=O)N(c2ccc3ncnc(Nc4ccc(Oc5ccc6c(c5)ncn6C)c(C)c4)c3c2)C2CC12 (single isomer, unassigned) [Example S33, Enantiomer # 2, 2-[4-({3-methyl-4-[(1-methyl-1,3-benzodiazol-5-yl)oxy]phenyl}amino)quinazolin-6-yl]-4-methylidene-2-azabicyclo[3.1.0]hexan-3-one] | 7.60 | 6.28 | 7.6
C=C1C(=O)N(c2ccc3ncnc(Nc4ccc(Cc5ccn6ncnc6c5)c(C)c4)c3c2)C2CC12 (single isomer, unassigned) [Example S79, Enantiomer #1, 2-(4-((4-([1,2,4]triazolo[1,5-a]pyridin-7-ylmethyl)-3-methylphenyl)amino)quinazolin-6-yl)-4-methylene-2-azabicyclo[3.1.0]hexan-3-one] | 7.44 | 5.21 | 32.1
C=C1C(=O)N(c2ccc3ncnc(Nc4ccc(Cc5ccn6ncnc6c5)c(C)c4)c3c2)C2CC12 (single isomer, unassigned) [Example S79, Enantiomer #2, 2-(4-((4-([1,2,4]triazolo[1,5-a]pyridin-7-ylmethyl)-3-methylphenyl)amino)quinazolin-6-yl)-4-methylene-2-azabicyclo[3.1.0]hexan-3-one] | 7.82 | 6.10 | 13.7
C=C1CCN(c2ccc3ncnc(Nc4ccc(Sc5ccn6ncnc6c5)c(C)c4)c3c2)C1=O [Compound 13, 1-[4-[(3-methyl-4-[[1,2,4]triazolo[1,5-a]pyridin-7-ylsulfanyl]phenyl)amino]quinazolin-6-yl]-3-methylidenepyrrolidin-2-one] | 7.90 | 6.24 | –
C=C1C(=O)N(c2ccc3ncnc(Nc4ccc(Oc5ccn6ncnc6c5)c(C)c4)c3c2)C[C@@H]1C [Compound 19, (R)-1-(4-((4-([1,2,4]triazolo[1,5-a]pyridin-7-yloxy)-3-methylphenyl)amino)quinazolin-6-yl)-4-methyl-3-methylenepyrrolidin-2-one] | 7.60 | 5.25 | –
C=C1C(=O)N(c2ccc3ncnc(Nc4ccc(Oc5ccn6ncnc6c5)c(C)c4)c3c2)C[C@H]1C [Compound 20, (S)-1-(4-(4-([1,2,4]triazolo[1,5-a]pyridin-7-yloxy)-3-methylphenylamino)quinazolin-6-yl)-4-methyl-3-methylenepyrrolidin-2-one] | 7.92 | 6.23 | –
C=C1CCN(c2ccc3ncnc(Nc4ccc(Oc5ccn6ncnc6c5)c(C)c4)c3n2)C1=O [Compound 23, 1-{4-[(3-methyl-4-{[1,2,4]triazolo[1,5-a]pyridin-7-yloxy}phenyl)amino]pyrido[3,2-d]pyrimidin-6-yl}-3-methylidenepyrrolidin-2-one] | 7.63 | 5.21 | –

The next lines start with results.

pIC50 [1] | pIC50 [2] | Structure (SMILES) | GI50 [3] [nM]
7.71 | < 5.00 | Cc1cc(Nc2ncnc3ccc(N4CCC(=CCN(C)C)C4=O)cc23)ccc1Oc1ccn2ncnc2c1 (single isomer, unassigned) [Compound 17, (Z)-3-[2-(dimethylamino)ethylidene]-1-[4-[(3-methyl-4-[[1,2,4]triazolo[1,5-a]pyridin-7-yloxy]phenyl)amino]quinazolin-6-yl]pyrrolidin-2-one] | –
7.14 | 5.78 | CC1CN(c2cc3c(Nc4ccc(Oc5ccc6c(c5)nnn6C)cc4)ncnc3cn2)C(=O)/C1=C/CN(C)C (single isomer, unassigned) [Compound 136] | 18
5.39 | < 5.00 | CC1CN(c2cc3c(Nc4ccc(Oc5ccc6c(c5)nnn6C)cc4)ncnc3cn2)C(=O)/C1=C/CN(C)C (single isomer, unassigned) [Compound 137] | 473
7.94 | 6.24 | Cc1cc(Nc2ncnc3cnc(N4CC(C)/C(=C\CN(C)C)C4=O)cc23)ccc1Oc1ccc2c(c1)nnn2C (single isomer, unassigned) [Example S86, Enantiomer #1, (3E)-3-[2-(dimethylamino)ethylidene]-4-methyl-1-[4-({3-methyl-4-[(1-methyl-1,2,3-benzotriazol-5-yl)oxy]phenyl}amino)pyrido[3,4-d]pyrimidin-6-yl]pyrrolidin-2-one] | 2.59
6.86 | < 5.00 | Cc1cc(Nc2ncnc3cnc(N4CC(C)/C(=C\CN(C)C)C4=O)cc23)ccc1Oc1ccc2c(c1)nnn2C (single isomer, unassigned) [Example S86, Enantiomer #2, (3E)-3-[2-(dimethylamino)ethylidene]-4-methyl-1-[4-({3-methyl-4-[(1-methyl-1,2,3-benzotriazol-5-yl)oxy]phenyl}amino)pyrido[3,4-d]pyrimidin-6-yl]pyrrolidin-2-one] | 240
